Measured values taken from patent US20120009280A1, “METHOD OF REDUCING THE RATE OF DEGRADATION OF A BIOLOGICAL MATERIAL” (Bio-Energy Ingredients Limited, priority 2009, published 2012).

Experiments:
yeast = assay: Yeast count of spent brewer's / wet distiller's grains stored at ambient temperature; format: cell-based; conditions: dose 10% (w/w)
Method: Samples of Portion 1 (“AR”), Portion 3 (“SO”) and Portion 5 (“SH”) were then delivered to a microbiological testing facility about 15 kilometres from the treatment laboratory. Each was tested for initial total microbial, yeast and mould counts, respectively.
Separate untreated samples were similarly stored under insect-proof screens at ambient temperature for seven days (as shown in Tables 1 and 2). During the trial period the ambient temperature ranged from 11 to 33 degrees C.
(§1) The free moisture content on the initial spent brewer's grains was determined to be 78.1% m/m. After exposure to the environment for seven days, all of the samples were tested at a South African National Accreditation System (SANAS) approved microbiological testing facility. Each was tested for total micro-organism, yeast and mould counts to determine the affect of the various treatments. A similar procedure to that described in K. A. Rosentrater et al, Food Bioprocess Technol (2008) was used for the microbiological evaluation.
At the laboratory, the samples were thoroughly mixed and initially split into a first portion (Portion 1) and a second portion (Portion 2). Portion 1 was left untreated. A sample of Portion 1, was delivered immediately to a microbiological testing facility about 15 kilometres away from the treatment laboratory and was tested for initial total microbial, yeast and mould counts, respectively. No water removal prior to treatment was done in this experiment as was the case in Example 8 wherein a similar wet material was partially dewatered by pressing and the residue treated with 10% (w/w/) calcium oxide.
Samples from Portion 2 were subjected to treatment with varying amounts of a powdered, commercially-available calcium oxide containing approximately 94% calcium oxide (CaO) as shown in Table 32. The treatments varied from 2.5 to 10% (w/w) calcium oxide addition. The samples were stored in batches (according to the calcium oxide treatment) under insect-proof screens at ambient temperature for fifty six days. Separate untreated samples were similarly stored under insect-proof screens at ambient temperature for a total of 56 days. During the trial period the ambient temperature ranged from 10 to 30 degrees C. As this period was the southern hemisphere spring/early summer, the humidity as well as ambient temperatures varied widely.
as §1, with “79.4%” for “78.1%”
Samples from each treatment were drawn every seven days. No further calcium oxide treatment or agitation took place after the initial mix. In each case the entire sample was isolated and delivered to the microbiological testing facility.
The calcium oxide treatment trial described in Example 9 wherein wet distiller's grains were treated with 2.5%, 5% and 10.0% calcium oxide, respectively, versus untreated material was repeated using lower doses of calcium oxide. In this trial the same source of wet distiller's grains (again with now partial water removal prior to treatment) was treated. Also, the same protocol as described in Example 9 was applied, but at lower doses of calcium oxide i.e. 0.5%, 1.0%, 1.5%, 2.0% and 2.5%, respectively, versus untreated material.
In this trial the same source of wet distiller's grains (again with now partial water removal prior to treatment) was treated. Also, the same protocol as described in Example 9 was applied.

mould = assay: Mould count of spent brewer's / wet distiller's grains stored at ambient temperature; format: cell-based
In short: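 Wet grain samples were mixed with a powdered treatment agent in a single initial mix, with no later treatment or agitation. Batches and untreated controls were kept under insect-proof screens at ambient temperature. Every seven days, a whole sample from each treatment went to a SANAS-approved microbiological laboratory. Mould counts were determined there following a procedure similar to Rosentrater et al. (2008).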

[1] = pH of suspensions of grain samples in distilled water or PBS; conditions: 1% (w/w) in distilled water
Method: The untreated sample (A) was compared visually against the corresponding quicklime-treated sample (B).
On Day 7, 10 g amounts of each sample were suspended in either 90 ml PBS or 90 ml sterile distilled water and shaken for 10 minutes. The pH of each suspension was then measured and compared.
On Day 9, 10 g of each sample was suspended in 90 ml PBS and shaken for 10 minutes. The pH was measured.

SMILES: [Ca+2].[O-2] [CaO powder]
- Yeast Count (yeast; week 3): <10 cfu/gram
- Yeast Count (yeast; week 4): <10 cfu/gram
- Yeast Count (yeast; week 5): <10 cfu/gram
- Yeast Count (yeast; week 6): <10 cfu/gram
- Yeast Count (yeast; week 9): <10 cfu/gram
- Mould Count (mould; dose 5% (w/w), week 0): <10 cfu/gram
- Mould Count (mould; dose 5% (w/w), week 1): <10 cfu/gram
- Mould Count (mould; dose 5% (w/w), week 2): <10 cfu/gram
- Mould Count (mould; dose 5% (w/w), week 3): <10 cfu/gram
- Mould Count (mould; dose 5% (w/w), week 4): <10 cfu/gram
- Mould Count (mould; dose 5% (w/w), week 5): <10 cfu/gram
- Mould Count (mould; dose 5% (w/w), week 6): <10 cfu/gram
- Mould Count (mould; dose 5% (w/w), week 7): <10 cfu/gram
- Mould Count (mould; dose 5% (w/w), week 8): <10 cfu/gram
- Mould Count (mould; dose 5% (w/w), week 9): <10 cfu/gram
- Mould Count (mould; dose 10% (w/w), week 0): <10 cfu/gram
- Mould Count (mould; dose 10% (w/w), week 1): <10 cfu/gram
- Mould Count (mould; dose 10% (w/w), week 2): <10 cfu/gram
- Mould Count (mould; dose 10% (w/w), week 3): <10 cfu/gram
- Mould Count (mould; dose 10% (w/w), week 4): <10 cfu/gram
- Mould Count (mould; dose 10% (w/w), week 5): <10 cfu/gram
- Mould Count (mould; dose 10% (w/w), week 6): <10 cfu/gram
- Mould Count (mould; dose 10% (w/w), week 7): 3500 cfu/gram
- Mould Count (mould; dose 10% (w/w), week 8): <10 cfu/gram
- Mould Count (mould; dose 10% (w/w), week 9): <10 cfu/gram
- pH ([1]; dose 5% (w/w), week 0): 12.93
- pH ([1]; dose 5% (w/w), week 1): 12.05
- pH ([1]; dose 5% (w/w), week 2): 11.19
- pH ([1]; dose 5% (w/w), week 3): 7.82
- pH ([1]; dose 5% (w/w), week 4): 9.23
- pH ([1]; dose 5% (w/w), week 5): 7.55
- pH ([1]; dose 5% (w/w), week 6): 9.23
- pH ([1]; dose 5% (w/w), week 7): 7.28
- pH ([1]; dose 5% (w/w), week 8): 7.60
- pH ([1]; dose 5% (w/w), week 9): 8.45
- pH ([1]; dose 10% (w/w), week 0): 13.12
- pH ([1]; dose 10% (w/w), week 1): 12.56
- pH ([1]; dose 10% (w/w), week 2): 12.38
- pH ([1]; dose 10% (w/w), week 3): 12.36
- pH ([1]; dose 10% (w/w), week 4): 12.20
- pH ([1]; dose 10% (w/w), week 5): 12.12
- pH ([1]; dose 10% (w/w), week 6): 11.92
- pH ([1]; dose 10% (w/w), week 7): 7.56
- pH ([1]; dose 10% (w/w), week 8): 8.38
- pH ([1]; dose 10% (w/w), week 9): 11.77
